ChEMBL document CHEMBL1201862, “PubChem BioAssay data set” (2004)
Calls of active or inactive are those of the source.

Tests used:
[1] = inhibitors of HIV Env-driven cell fusion, dose response, cherry-pick (AID 652057); format: functional, cell-based
[2] = cytotoxicity in HEK-293T cells, dose response, cytotoxicity control for TCR NF-kB inhibitor project, luminescence, T-cell screen hits (AID 489026); format: functional, cell-based;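 further: cells exposed to compound about 14 hours before the viability readout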
[3] = molecular target: T1, Luciferin 4-monooxygenase (Photinus pyralis, UniProt P08659); assay: firefly luciferase enzyme inhibitors, dose response, biochemical, luminescence (AID 1891)
[4] = inhibitors of clade B AD8 Env fusion, dose response, cell-based, cherry-pick (AID 652062); format: functional;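 further: luciferase signal from cell-cell fusion driven by HIV-1 clade B AD8 Env; potency is for inhibitors of fusion seen as a drop in luminescence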
[5] = inhibitors of firefly luciferase expression or activity, dose response, H4 neuroglioma cells, luminescence (AID 1990); format: functional, cell-based
[6] = molecular target: T2, Heat shock factor protein 1 (Mus musculus, UniProt P38532); assay: inhibition of MG132-induced HSE-luciferase signal, confirmation, cell-based, NIH3T3, luminescence, dose retest (AID 2382); format: functional;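 further: NIH3T3 fibroblasts with HSF1-driven luciferase reporter stressed by proteasome inhibitor MG132; luminescence from HSF1-driven luciferase expression after 8 hours of MG132 stress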
T2 sequence (P38532 whole entry): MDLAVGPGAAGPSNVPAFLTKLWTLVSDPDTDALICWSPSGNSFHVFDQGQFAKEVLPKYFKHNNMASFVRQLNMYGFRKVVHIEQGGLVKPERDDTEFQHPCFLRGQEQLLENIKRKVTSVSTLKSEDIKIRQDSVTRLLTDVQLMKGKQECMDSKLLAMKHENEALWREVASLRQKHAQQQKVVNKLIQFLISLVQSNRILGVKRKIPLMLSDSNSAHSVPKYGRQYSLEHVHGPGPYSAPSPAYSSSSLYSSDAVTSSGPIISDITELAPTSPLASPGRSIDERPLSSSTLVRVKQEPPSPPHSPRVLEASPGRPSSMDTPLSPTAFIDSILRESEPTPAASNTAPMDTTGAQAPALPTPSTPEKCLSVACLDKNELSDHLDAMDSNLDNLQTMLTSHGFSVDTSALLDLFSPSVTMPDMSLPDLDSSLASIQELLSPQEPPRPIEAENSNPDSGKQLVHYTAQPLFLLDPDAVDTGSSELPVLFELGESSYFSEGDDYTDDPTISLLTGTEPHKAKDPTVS

[7] = inhibitors of SNCA 5'UTR-driven reporter translation, confirmation, H4 neuroglioma cells, luminescence (AID 1988); format: functional, cell-based
[8] = ZM109 Env clade C HIV-1 fusion inhibitors, dose response, HeLa effector, CEM target cells, luciferase, cherry-pick (AID 652058); format: functional, cell-based
[9] = Luminescence Cell-Based Dose Response HTS to Identify Inhibitors of 5'UTR Stem-Loop Driven Prion Protein mRNA Translation in H4 Neuroglioblastoma Cells. [Related pubchem assays: 1827 (Project Summary), 1813 (Primary HTS)]; format: functional
[10] = Luminescence Cell-Based Dose Confirmation HTS to Identify Inhibitors of Platelet Dense Granule Release. [Related pubchem assays: 1663 (Primary HTS), 1678 (Summary of Project)]; format: functional
[11] = Luminescence-based counterscreen assay for KLF5 inhibitors: dose response cell-based high throughput screening assay to identify cytotoxic compounds using the IEC-6 intestinal epithelial cell line. [Related pubchem assays: 1700 (Primary screen.), 1834 (Confirmation screen.), 1858 (Summary AID.), 1905 (Counterscreen.)]; format: functional
HT-1080 = assay: cytotoxicity in HT1080 fibrosarcoma cells, cell-based, fluorescence readout (AID 620); format: functional; conditions: Homo sapiens
[12] = Fluorescence Cell-Based Dose Response to Identify Inhibitors of Thrombin Receptor-Activating Peptide SFLLRN-Mediated P-Selectin Induction on Platelets. [Related pubchem assays: 1663 (Primary HTS), 1889 (retest at dose ), 1891 (counterscreen), 1678 (Project Summary)]; format: functional
[13] = molecular target: T1, Luciferin 4-monooxygenase; assay: Counter Screen for Luciferase-based Assay Positives. [Related pubchem assays: 620, 618, 411 ]
[14] = off-target signal loss in HeLa-CEM21 co-culture – HeLa F-luc CTL cells, cherry-picked, counter-screen for HIV-1 Env fusion inhibitor project, dose response (AID 652040); format: functional, cell-based;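 further: potency for signal decrease marking cytotoxic or nonspecific inhibition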
[15] = CEM21 lymphoblast cell cytotoxicity, dose response, cytotoxicity control for viral fusion inhibitor project, CellTiter-Glo luminescence, cherry-picked (AID 652042); format: functional, cell-based;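 further: potency for signal decrease meaning cytotoxicity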
Estrogen receptor = molecular target: T3, Estrogen receptor (Homo sapiens, UniProt P03372); assay: potentiators of ERα–SRC-1 coactivator binding, dose response, biochemical, TR-FRET, ERα LBD (AID 737)
T3 sequence (P03372 whole entry): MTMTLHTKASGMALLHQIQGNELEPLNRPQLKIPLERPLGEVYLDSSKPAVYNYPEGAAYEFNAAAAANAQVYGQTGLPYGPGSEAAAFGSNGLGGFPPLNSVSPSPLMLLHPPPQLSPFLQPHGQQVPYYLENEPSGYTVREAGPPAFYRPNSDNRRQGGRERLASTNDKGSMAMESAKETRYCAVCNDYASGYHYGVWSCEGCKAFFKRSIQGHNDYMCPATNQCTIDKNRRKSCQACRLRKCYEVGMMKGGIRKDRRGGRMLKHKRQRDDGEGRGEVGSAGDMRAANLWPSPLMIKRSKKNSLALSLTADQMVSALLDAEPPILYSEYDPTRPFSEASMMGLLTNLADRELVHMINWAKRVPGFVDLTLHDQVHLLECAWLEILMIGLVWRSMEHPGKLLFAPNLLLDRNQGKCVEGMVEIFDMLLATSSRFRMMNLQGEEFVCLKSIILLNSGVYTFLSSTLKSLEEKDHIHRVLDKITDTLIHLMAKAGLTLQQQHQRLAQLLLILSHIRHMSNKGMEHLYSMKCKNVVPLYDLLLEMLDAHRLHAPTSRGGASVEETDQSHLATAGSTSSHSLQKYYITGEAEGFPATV

[16] = molecular target: Polyadenylate-binding protein 1 (Homo sapiens, UniProt P11940); assay: PABP poly(A) RNA binding inhibitors, primary screen, biochemical, fluorescence polarization, uHTS (AID 2014)
[17] = molecular target: Eukaryotic translation initiation factor 4H (Homo sapiens, UniProt Q15056); assay: human eIF4H binding inhibitors, primary screen, translation initiation inhibitor project, biochemical, uHTS, fluorescence polarization (AID 2012)
H4 = assay: Luminescence Cell-Based Dose Response HTS to Identify Activators of 5'UTR Stem-Loop Driven Prion Protein mRNA Translation in H4 Neuroglioblastoma Cells. [Related pubchem assays: 1829 (Project Summary), 1814 (Primary HTS)]; format: functional; conditions: Homo sapiens
[18] = Luminescence Cell-Based Dose Response HTS to Identify Activators of Luciferase Translation or Activity in H4 […] Cells. [Related pubchem assays: 1829 (Project Summary), 1814 (Primary HTS)]; format: functional
[19] = molecular target: T4, Mannose-6-phosphate isomerase (Homo sapiens, UniProt P34949); assay: inhibitors of human PMI, primary screen, biochemical, fluorescence intensity, coupled assay (AID 1209)
T4 sequence (P34949 whole entry): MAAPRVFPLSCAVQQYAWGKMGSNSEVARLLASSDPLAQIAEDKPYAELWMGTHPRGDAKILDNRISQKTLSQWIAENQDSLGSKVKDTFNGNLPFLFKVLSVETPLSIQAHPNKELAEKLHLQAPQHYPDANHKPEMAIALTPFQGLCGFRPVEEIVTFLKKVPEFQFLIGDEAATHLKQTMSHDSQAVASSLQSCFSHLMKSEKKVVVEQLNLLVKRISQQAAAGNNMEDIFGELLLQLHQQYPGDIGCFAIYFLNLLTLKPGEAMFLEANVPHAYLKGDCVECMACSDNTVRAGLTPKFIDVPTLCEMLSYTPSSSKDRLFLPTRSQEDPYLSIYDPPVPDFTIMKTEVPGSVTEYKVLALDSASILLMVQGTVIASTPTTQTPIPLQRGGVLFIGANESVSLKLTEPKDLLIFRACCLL

[20] = Luminescence Cell-Based Dose Confirmation HTS to Identify Activators of 5'UTR Stem-Loop Driven Alpha-Synuclein mRNA Translation in H4 Neuroglioblastoma Cells. [Related pubchem assays: 1829 (Project Summary), 1814 (Primary HTS)]; format: functional
cells [21] = assay: cells
[22] = HEp-2 cell cytotoxicity, dose response, cytotoxicity control for RSV inhibitor project, HTS (AID 2410); format: functional; conditions: human respiratory syncytial virus
INS1 = assay: beta cell apoptosis inhibitors, cytokine rescue, dose response, luminescence, retest (AID 449756); format: functional, cell-based; conditions: Rattus norvegicus;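 further: cell death triggered by IL-1 beta plus TNF-alpha plus IFN-gamma mixture; protective hits raise ATP signal compared with cytokine alone wells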
[23] = molecular target: T5, Microphthalmia-associated transcription factor (Homo sapiens, UniProt O75030); assay: TRPM1 promoter luciferase signal decrease, dose response, MITF inhibitor project, cell-based, SK-MEL-5, cherry-picked, set 3 (AID 493073); format: functional
T5 sequence (O75030 whole entry): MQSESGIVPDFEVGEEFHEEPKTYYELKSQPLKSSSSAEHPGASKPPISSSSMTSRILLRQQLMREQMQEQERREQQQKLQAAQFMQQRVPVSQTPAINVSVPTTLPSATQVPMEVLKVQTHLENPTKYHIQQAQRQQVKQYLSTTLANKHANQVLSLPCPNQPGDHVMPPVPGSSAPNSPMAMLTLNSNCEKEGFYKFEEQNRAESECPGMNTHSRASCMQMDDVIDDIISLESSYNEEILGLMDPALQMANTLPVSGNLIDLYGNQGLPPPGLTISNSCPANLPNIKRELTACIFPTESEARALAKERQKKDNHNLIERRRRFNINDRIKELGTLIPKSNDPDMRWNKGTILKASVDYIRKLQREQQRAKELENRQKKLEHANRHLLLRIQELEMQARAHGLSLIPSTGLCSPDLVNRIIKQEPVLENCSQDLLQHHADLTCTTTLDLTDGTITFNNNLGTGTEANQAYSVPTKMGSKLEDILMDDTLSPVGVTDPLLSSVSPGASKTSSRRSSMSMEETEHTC

cells [24] = format: functional, cell-based
Streptococcus = assay: Group A Streptococcus viability loss, dose response, counter-screen for streptokinase expression inhibitor project, luminescence, BacTiterGlo (AID 1915); format: functional, organism-based;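 further: potency for reduction of bacterial viability or growth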
[25] = tested on: Streptococcus sp. 'group A'; assay: growth inhibition of control SK(-) GAS strain, dose response, counter-screen for streptokinase expression inhibitor project, luminescence, kanamycin, BacTiterGlo, confirmation (AID 1900); format: functional, organism-based
cells [26] = format: functional, cell-based; remark: listed apart in the source
[27] = inhibitors of intracellular T. cruzi replication, confirmation, NIH3T3 host cells, beta-gal luminescence (AID 2044); format: functional, cell-based;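 further: intracellular parasites grown in NIH/3T3 mouse fibroblasts as host cells; luminescent beta-galactosidase reporter signal from transgenic T. cruzi replicating inside host cells; inhibitors lower the luminescence signal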
[28] = cytotoxicity toward NIH3T3 fibroblasts, dose response, counter-screen, cell-based, ATP luminescence, mouse fibroblasts (AID 2010); format: functional;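 further: cells exposed to compound for about 90 hours before reading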
Leucine aminopeptidase = Leucine aminopeptidase (Plasmodium falciparum 3D7, UniProt Q8IL11); assay: P. falciparum M17LAP inhibitors, primary screen, biochemical, fluorogenic H-Leu-NHMec substrate, 1536-well (AID 1619); format: functional
[29] = enhancers of respiration in Yfh1-depleted yeast, dose response, Friedreich's ataxia, plus single-dose screen (AID 1465); format: functional;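 further: yeast depleted of Yfh1p frataxin homolog grown on glycerol needing respiration; WST-1 tetrazolium dye reduction as measure of cellular dehydrogenase metabolic activity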
Large T antigen = Large T antigen (Simian virus 40, UniProt P03070); format: functional, Betapolyomavirus macacae;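 further: Confirmatory-stage PubChem screen for compounds that inhibit SV40 T antigen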
Large T antigen, sequence (P03070 whole entry): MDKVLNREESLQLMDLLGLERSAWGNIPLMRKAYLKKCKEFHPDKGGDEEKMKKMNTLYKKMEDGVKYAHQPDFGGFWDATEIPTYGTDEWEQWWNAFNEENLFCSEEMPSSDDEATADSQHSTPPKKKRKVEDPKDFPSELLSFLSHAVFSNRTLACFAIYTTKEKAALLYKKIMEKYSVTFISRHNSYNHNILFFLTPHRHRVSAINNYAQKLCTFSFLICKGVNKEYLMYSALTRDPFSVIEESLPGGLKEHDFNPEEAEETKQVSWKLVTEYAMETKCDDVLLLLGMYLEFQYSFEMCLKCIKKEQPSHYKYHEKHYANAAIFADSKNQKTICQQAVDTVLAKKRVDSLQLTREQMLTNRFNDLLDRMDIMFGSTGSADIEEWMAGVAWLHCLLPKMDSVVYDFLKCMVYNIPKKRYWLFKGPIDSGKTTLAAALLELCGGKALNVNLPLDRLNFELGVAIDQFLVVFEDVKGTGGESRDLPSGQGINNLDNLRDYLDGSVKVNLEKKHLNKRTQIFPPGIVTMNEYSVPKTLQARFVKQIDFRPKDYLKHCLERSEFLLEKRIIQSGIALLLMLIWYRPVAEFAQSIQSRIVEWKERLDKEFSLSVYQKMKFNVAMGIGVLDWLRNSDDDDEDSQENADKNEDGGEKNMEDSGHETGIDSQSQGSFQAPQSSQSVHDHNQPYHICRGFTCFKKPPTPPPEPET

T1 sequence (P08659 whole entry, the tested form may be a part): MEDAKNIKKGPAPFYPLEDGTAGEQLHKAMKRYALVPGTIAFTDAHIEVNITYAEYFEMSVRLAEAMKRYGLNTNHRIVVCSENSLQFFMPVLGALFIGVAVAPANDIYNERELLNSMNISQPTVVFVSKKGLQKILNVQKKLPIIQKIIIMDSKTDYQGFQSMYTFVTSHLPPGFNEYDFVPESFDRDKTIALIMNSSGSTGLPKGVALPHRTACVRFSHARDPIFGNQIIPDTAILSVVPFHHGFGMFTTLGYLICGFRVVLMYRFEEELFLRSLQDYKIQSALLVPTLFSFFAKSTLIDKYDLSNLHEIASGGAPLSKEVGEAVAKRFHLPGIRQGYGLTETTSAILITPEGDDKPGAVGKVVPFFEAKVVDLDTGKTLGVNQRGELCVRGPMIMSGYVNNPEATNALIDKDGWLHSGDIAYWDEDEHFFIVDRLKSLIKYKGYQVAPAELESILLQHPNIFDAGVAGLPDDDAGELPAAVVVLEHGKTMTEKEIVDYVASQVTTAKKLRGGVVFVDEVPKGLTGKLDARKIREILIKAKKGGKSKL
Leucine aminopeptidase, sequence (Q8IL11 whole entry): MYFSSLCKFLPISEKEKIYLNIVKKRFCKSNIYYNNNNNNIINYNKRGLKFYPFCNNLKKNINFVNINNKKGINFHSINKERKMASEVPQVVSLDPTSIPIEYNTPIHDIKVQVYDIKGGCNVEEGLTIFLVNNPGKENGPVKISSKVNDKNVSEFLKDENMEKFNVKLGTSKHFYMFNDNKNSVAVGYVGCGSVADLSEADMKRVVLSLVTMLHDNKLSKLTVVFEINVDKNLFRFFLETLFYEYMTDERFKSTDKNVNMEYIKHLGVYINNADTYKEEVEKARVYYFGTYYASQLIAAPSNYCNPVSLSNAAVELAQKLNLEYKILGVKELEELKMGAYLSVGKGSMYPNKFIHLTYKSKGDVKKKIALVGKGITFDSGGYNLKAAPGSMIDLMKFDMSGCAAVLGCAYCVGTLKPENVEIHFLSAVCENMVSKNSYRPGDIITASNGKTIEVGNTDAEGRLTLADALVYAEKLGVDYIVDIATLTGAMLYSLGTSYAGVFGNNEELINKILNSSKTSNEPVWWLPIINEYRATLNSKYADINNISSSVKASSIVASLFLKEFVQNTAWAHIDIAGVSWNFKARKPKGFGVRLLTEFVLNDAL
Polyadenylate-binding protein 1, sequence (P11940 whole entry): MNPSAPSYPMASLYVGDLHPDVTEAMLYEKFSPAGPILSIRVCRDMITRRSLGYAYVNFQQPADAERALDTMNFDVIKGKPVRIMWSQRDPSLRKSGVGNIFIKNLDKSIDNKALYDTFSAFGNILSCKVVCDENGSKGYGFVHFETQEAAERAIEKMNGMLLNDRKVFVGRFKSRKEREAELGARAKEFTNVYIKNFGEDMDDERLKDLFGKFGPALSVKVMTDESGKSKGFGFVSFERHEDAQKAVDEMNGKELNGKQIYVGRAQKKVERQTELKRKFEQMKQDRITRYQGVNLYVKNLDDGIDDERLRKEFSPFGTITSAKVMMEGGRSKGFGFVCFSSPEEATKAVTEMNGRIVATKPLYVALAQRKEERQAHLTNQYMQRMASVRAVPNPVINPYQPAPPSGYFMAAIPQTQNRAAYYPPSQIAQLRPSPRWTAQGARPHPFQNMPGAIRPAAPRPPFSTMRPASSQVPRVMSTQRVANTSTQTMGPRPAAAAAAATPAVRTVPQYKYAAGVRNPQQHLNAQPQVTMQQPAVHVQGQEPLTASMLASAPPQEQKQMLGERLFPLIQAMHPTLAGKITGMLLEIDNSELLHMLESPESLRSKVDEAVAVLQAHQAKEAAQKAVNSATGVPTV

With COC(=O)c1nn(-c2ccc3c(c2)CCN3C(C)=O)cc1O the AC50 [1] was 5.72 µM (active), the IC50 [2] was > 80 µM (inactive) and the EC50 [3] was 15.8 µM (active). For the same compound, the AC50 [4] was 6.43 µM (active), the EC50 [5] was 2.45 µM (inconclusive) and the EC50 [6] was 0.665 µM (active). For the same compound, the EC50 [7] was 1.78 µM (active), the AC50 [8] was 18.5 µM (active) and the EC50 [9] was 0.29 µM (active). The EC50 [10] was 1.06 µM (active), the IC50 [11] was > 39.8 µM (not active) and the EC50 (HT-1080) was > 50 µM (not active). For the same compound, the EC50 [12] was < 100 µM (not active), the EC50 [13] was > 100 µM (not active) and the AC50 [14] was 3.07 µM (active). For the same compound, the AC50 [15] was 45.5 µM (active).

With CCn1/c(=N/C(=O)c2ccc(N3C(=O)CCC3=O)cc2)sc2c(OC)ccc(OC)c21 the EC50 (Estrogen receptor) was 7.94 µM (active), the IC50 [16] was > 100 µM (inactive) and the IC50 [17] was 14.7 µM (active).

In the case of Cc1cc(N=C(S)Nc2ccc(C)c(Cl)c2)[nH]n1, the EC50 (H4) is reported as 14.8 µM (active), the EC50 [18] is reported as 76.2 µM (active) and the IC50 [19] is reported as > 50 µM (not active). For the same compound, the EC50 [20] was 8.11 µM (active).

With CCCOc1ccc(-c2nnc(-c3cccs3)o2)cc1 the EC50 (HT-1080) was > 50 µM (not active) and the EC50 [13] was 7.29 µM (active).

For Cc1nn(-c2ccccc2)c2sc(C(=O)c3c(N)n(C)c(=O)n(C)c3=O)cc12, the EC50 (Estrogen receptor) was 12.6 µM (active).

With COc1cccc(C(=O)Nc2cc(NC(=O)c3cccs3)ccc2C)c1OC the IC50 (cells [21]) was 48.3 µM (active) and the CC50 [22] was 38.2 µM (active).

In the case of COc1ccc(C(=O)N/N=C/c2cc(Br)ccc2O)cc1OC, the AC50 (INS1) is reported as 1.97 µM (active), the AC50 [23] is reported as 4.76 µM (active) and the EC50 (cells [24]) is reported as > 350 µM (not active). For the same compound, the IC50 [11] was 12.2 µM (not active), the EC50 (Streptococcus) was 5.78 µM (active) and the EC50 [25] was 0.959 µM (active). For the same compound, the EC50 (cells [26]) was 11.3 µM (active), the EC50 [27] was 3.76 µM (active) and the EC50 [28] was > 60 µM (not active).

In the case of COc1ccc2oc(C)c(C(=O)NN)c2c1, the IC50 (Leucine aminopeptidase) is reported as 26.6 µM (active).

For Nc1[nH]ncc1-c1ccc(Cl)cc1, the IC50 (Leucine aminopeptidase) was 38.2 µM (active).

With N#C/C(=C\c1ccc(N2CCOCC2)o1)C(=O)Nc1ccc(O)cc1 the EC50 [29] was > 100 µM (active) and the IC50 (Large T antigen) was 15.2 µM (active).
